In US20170071976A1, “PHARMACEUTICAL SOLUTION HAVING ANTI-TUMOR EFFECT-ENHANCING AND TOXICITY-REDUCING EFFECT, AND PHARMACEUTICAL COMPOSITION COMPRISING SAME” (priority 2014, published 2017):

Key:
[1] = tested on: PANC-1 pancreatic cancer cell line; experiment: MTT assay: in vitro inhibition of growth by deuterium oxide; format: cell-based, human
Procedure: (§1) Studies of in vitro inhibition of growth of human tumor cells by deuterium oxide, by the MTT (3-(4,5-dimethylthiazol-2-yl)-2,5-diphenyltetrazolium bromide) assay
(§2) 1. A bottle of cells that had been cultured for 3 to 4 days and were in the exponential phase was taken, a suitable amount of 0.25% Trypsin-EDTA solution was added thereto to detach the cells from the wall, and the cells were suspended in 10 ml RPMI 1640 medium containing 10% FBS. 2. The cells were counted on a hemocytometer, and generally viable cells should be not less than 97%. 3. The cell suspension was diluted with a complete medium to prepare a suspension containing 1×10^4 cells/ml. 4. To each well of a 12-well culture plate, 300 μl cell suspension was added. The addition of cells should be finished within 4 hours. The plate was placed in an incubator at 37° C. and 5% CO2 for 24 hours. 5. Powdery RPMI Medium 1640 (Gibco, USA, Cat#: 31800-022) was dissolved in deuterium oxide (provided by Cambridge Isotope Laboratories, Inc. (US)) to prepare a cell culture medium (unless particularly specified, all culture media used in the Examples hereinafter were prepared from powdery RPMI Medium 1640 and deuterium oxide) at a concentration shown in Table 1, which was added into the cell culture plate. 6. The cell culture plate was incubated for 3 days in an incubator at 37° C., 5% CO2 and 100% humidity. 7. A solution of 1 mg/ml MTT was prepared in a serum-free RPMI1640 medium, added to the plate at 200 μl/well, and incubated at 37° C. for 4 hours, to allow MTT to be reduced to formazan. 8. The supernatant was removed by pipetting, 200 μl DMSO was added to dissolve formazan, and the solution was well mixed on a platform shaker. 9. Absorbance of each well was measured on an ELISA reader with a detection wavelength of 570 nm and a reference wavelength of 450 nm. 10. The assay was repeated one more time.
(§3) Calculation of results: Inhibition of growth of tumor cells by deuterium oxide was calculated using tumor cells treated with sodium chloride physiological solution as a control group. Inhibition of cell growth was plotted against amounts of deuterium oxide to obtain a dose response curve, from which the half maximal inhibitory concentration (IC50) of deuterium oxide was derived.
(§4) Inhibition of tumor cell growth (%)=(1−OD test/OD control)×100%

[2] = tested on: A549 lung cancer cell line; experiment: as above; format: cell-based, human
Procedure: as §1, §2, §3, §4

[3] = tested on: HeLa cervical cancer cell line; experiment: as above; format: cell-based, human
Procedure: as §1, §2, §3, §4

[4] = tested on: PC-3 prostate cancer cell line; experiment: as above; format: cell-based, human
Procedure: as §1, §2, §3, §4

[5] = tested on: SF767 brain cancer cell line; experiment: as above; format: cell-based, human
Procedure: as §1, §2, §3, §4

[6] = tested on: SKOV3 ovarian cancer cell line; experiment: as above; format: cell-based, human
Procedure: as §1, §2, §3, §4

[7] = tested on: human colon cancer HCT-116 cells (a moderately drug resistant strain); experiment: MTT assay: deuterium oxide in combination with 5-FU; format: cell-based; settings: read-out: Inhibition of cell growth (%) (5-FU alone)
Procedure: In vitro inhibition of growth of human colon cancer HCT-116 cells (a moderately drug resistant strain) by deuterium oxide in combination with 5-fluorouracil (5-FU)
Method: 5-fluorouracil was diluted with the sodium chloride deuterium oxide solution according to the concentrations shown in Table 2 and added to a cell culture plate; the in vitro inhibition of tumor cell growth was measured by the MTT assay in the same manner as Example 14.
The assay was repeated one more time.

[2H]O[2H] [Deuterium oxide]
Inhibition of growth (%) ([1]; deuterium oxide 1.2% (v/v)): 7.37% | Inhibition of growth (%) ([1]; deuterium oxide 2.5% (v/v)): 13.88% | Inhibition of growth (%) ([1]; deuterium oxide 5% (v/v)): 14.41% | Inhibition of growth (%) ([1]; deuterium oxide 10% (v/v)): 8.43% | Inhibition of growth (%) ([1]; deuterium oxide 20% (v/v)): 9.06% | Inhibition of growth (%) ([1]; deuterium oxide 30% (v/v)): 17.81% | Inhibition of growth (%) ([1]; deuterium oxide 40% (v/v)): 26.73% | Inhibition of growth (%) ([1]; deuterium oxide 50% (v/v)): 31.62% | Inhibition of growth (%) ([1]; deuterium oxide 60% (v/v)): 50.31% | Inhibition of growth (%) ([1]; deuterium oxide 70% (v/v)): 57.29% | Inhibition of growth (%) ([1]; deuterium oxide 80% (v/v)): 79.05% | IC10 ([1]; expressed in v/v %): 3.03% | IC50 ([1]; expressed in v/v %): 65.38% | Inhibition of growth (%) ([2]; deuterium oxide 1.2% (v/v)): 7.71% | Inhibition of growth (%) ([2]; deuterium oxide 2.5% (v/v)): 17.64% | Inhibition of growth (%) ([2]; deuterium oxide 5% (v/v)): 18.05% | Inhibition of growth (%) ([2]; deuterium oxide 10% (v/v)): 18.88% | Inhibition of growth (%) ([2]; deuterium oxide 20% (v/v)): 16.19% | Inhibition of growth (%) ([2]; deuterium oxide 30% (v/v)): 27.71% | Inhibition of growth (%) ([2]; deuterium oxide 40% (v/v)): 39.37% | Inhibition of growth (%) ([2]; deuterium oxide 50% (v/v)): 42.67% | Inhibition of growth (%) ([2]; deuterium oxide 60% (v/v)): 55.42% | Inhibition of growth (%) ([2]; deuterium oxide 70% (v/v)): 70.88% | Inhibition of growth (%) ([2]; deuterium oxide 80% (v/v)): 92.34% | IC10 ([2]; expressed in v/v %): 1.52% | IC50 ([2]; expressed in v/v %): 55.32% | Inhibition of growth (%) ([3]; deuterium oxide 1.2% (v/v)): 12.11% | Inhibition of growth (%) ([3]; deuterium oxide 2.5% (v/v)): 14.44% | Inhibition of growth (%) ([3]; deuterium oxide 5% (v/v)): 16.25% | Inhibition of growth (%) ([3]; deuterium oxide 10% (v/v)): 28.87% | Inhibition of growth (%) ([3]; deuterium oxide 20% (v/v)): 36.12% | Inhibition of growth (%) ([3]; deuterium oxide 30% (v/v)): 45.41% | Inhibition of growth (%) ([3]; deuterium oxide 40% (v/v)): 58.26% | Inhibition of growth (%) ([3]; deuterium oxide 50% (v/v)): 65.63% | Inhibition of growth (%) ([3]; deuterium oxide 60% (v/v)): 73.32% | Inhibition of growth (%) ([3]; deuterium oxide 70% (v/v)): 85.82% | Inhibition of growth (%) ([3]; deuterium oxide 80% (v/v)): 90.11% | IC10 ([3]; expressed in v/v %): 1.8% | IC50 ([3]; expressed in v/v %): 68.33% | Inhibition of growth (%) ([4]; deuterium oxide 1.2% (v/v)): 0.46% | Inhibition of growth (%) ([4]; deuterium oxide 2.5% (v/v)): 4.33% | Inhibition of growth (%) ([4]; deuterium oxide 5% (v/v)): −2.50% | Inhibition of growth (%) ([4]; deuterium oxide 10% (v/v)): 8.81% | Inhibition of growth (%) ([4]; deuterium oxide 20% (v/v)): −16.46% | Inhibition of growth (%) ([4]; deuterium oxide 30% (v/v)): 26.67% | Inhibition of growth (%) ([4]; deuterium oxide 40% (v/v)): 43.19% | Inhibition of growth (%) ([4]; deuterium oxide 50% (v/v)): 59.42% | Inhibition of growth (%) ([4]; deuterium oxide 60% (v/v)): 60.84% | Inhibition of growth (%) ([4]; deuterium oxide 70% (v/v)): 73.42% | Inhibition of growth (%) ([4]; deuterium oxide 80% (v/v)): 87.08% | IC10 ([4]; expressed in v/v %): 9.35% | IC50 ([4]; expressed in v/v %): 61.34% | Inhibition of growth (%) ([5]; deuterium oxide 1.2% (v/v)): 4.76% | Inhibition of growth (%) ([5]; deuterium oxide 2.5% (v/v)): 3.94% | Inhibition of growth (%) ([5]; deuterium oxide 5% (v/v)): −4.41% | Inhibition of growth (%) ([5]; deuterium oxide 10% (v/v)): −8.43% | Inhibition of growth (%) ([5]; deuterium oxide 20% (v/v)): 7.66% | Inhibition of growth (%) ([5]; deuterium oxide 30% (v/v)): 8.42% | Inhibition of growth (%) ([5]; deuterium oxide 40% (v/v)): 16.50% | Inhibition of growth (%) ([5]; deuterium oxide 50% (v/v)): 21.23% | Inhibition of growth (%) ([5]; deuterium oxide 70% (v/v)): 49.65% | Inhibition of growth (%) ([5]; deuterium oxide 80% (v/v)): 71.22% | IC10 ([5]; expressed in v/v %): 31.85% | IC50 ([5]; expressed in v/v %): 91.12% | Inhibition of growth (%) ([6]; deuterium oxide 1.2% (v/v)): 1.82% | Inhibition of growth (%) ([6]; deuterium oxide 2.5% (v/v)): 7.35% | Inhibition of growth (%) ([6]; deuterium oxide 5% (v/v)): 8.33% | Inhibition of growth (%) ([6]; deuterium oxide 10% (v/v)): 9.65% | Inhibition of growth (%) ([6]; deuterium oxide 20% (v/v)): 12.64% | Inhibition of growth (%) ([6]; deuterium oxide 30% (v/v)): 16.69% | Inhibition of growth (%) ([6]; deuterium oxide 40% (v/v)): 32.76% | Inhibition of growth (%) ([6]; deuterium oxide 50% (v/v)): 41.80% | Inhibition of growth (%) ([6]; deuterium oxide 60% (v/v)): 59.84% | Inhibition of growth (%) ([6]; deuterium oxide 70% (v/v)): 74.07% | Inhibition of growth (%) ([6]; deuterium oxide 80% (v/v)): 90.42%

O=c1[nH]cc(F)c(=O)[nH]1 [Example 5-FU, 5-fluorouracil]
inhibition at 0.02 µg/mL ([7]; 5-FU final conc. 0.02 μg/ml): 2.18% | inhibition at 0.05 µg/mL ([7]; 5-FU final conc. 0.05 μg/ml): 2.55% | inhibition at 0.1 µg/mL ([7]; 5-FU final conc. 0.10 μg/ml): 2.3% | inhibition at 0.2 µg/mL ([7]; 5-FU final conc. 0.20 μg/ml): 3.24% | inhibition at 0.39 µg/mL ([7]; 5-FU final conc. 0.39 μg/ml): 6.98% | inhibition at 0.78 µg/mL ([7]; 5-FU final conc. 0.78 μg/ml): 9.82% | inhibition at 1.56 µg/mL ([7]; 5-FU final conc. 1.56 μg/ml): 11% | inhibition at 3.13 µg/mL ([7]; 5-FU final conc. 3.13 μg/ml): 18.6% | inhibition at 6.25 µg/mL ([7]; 5-FU final conc. 6.25 μg/ml): 26.5% | inhibition at 12.5 µg/mL ([7]; 5-FU final conc. 12.5 μg/ml): 35.3%
